From publication PMC7265341, “Quantifying CDK inhibitor selectivity in live cells” (Nature Communications, 2020)
Where two headings read alike, the source gives them in different places.

Columns and labels:
[1] = target: CDK5/CDK5R1 (Homo sapiens, UniProt Q00535); assay: NanoBRET live-cell target engagement, CDK5-NanoLuc/CDK5R1 in HEK-293; format: binding; conditions: CDK5/CDK5R1, 10µM
[2] = target: CDK13/Cyclin K (Homo sapiens, UniProt Q14004); assay: NanoBRET live-cell target engagement, CDK13-NanoLuc/Cyclin K in HEK-293; format: binding; conditions: CDK13/K, 10µM
[3] = target: CDK10/Cyclin L2 (Homo sapiens, UniProt Q15131); assay: NanoBRET live-cell target engagement, CDK10-NanoLuc/Cyclin L2 in HEK-293; conditions: 10µM
[4] = target: CDK12/Cyclin K (Homo sapiens, UniProt Q9NYV4); assay: NanoBRET live-cell target engagement, CDK12-NanoLuc/Cyclin K in HEK-293; format: binding; conditions: CDK12/K, 10µM
[5] = target: CDK11B/Cyclin L2 (Homo sapiens, UniProt P21127); assay: NanoBRET live-cell target engagement, CDK11B-NanoLuc/Cyclin L2 in HEK-293; format: binding; conditions: CDK11b/L2, 10µM
[6] = target: CDK15/Cyclin Y (Homo sapiens, UniProt Q96Q40); assay: NanoBRET live-cell target engagement, NanoLuc-CDK15/Cyclin Y in HEK-293; format: binding; conditions: CDK15/Y, 10µM
[7] = target: CDK16/Cyclin Y (Homo sapiens, UniProt Q00536); assay: NanoBRET live-cell target engagement, CDK16-NanoLuc/Cyclin Y in HEK-293; format: binding; conditions: CDK16/Y, 10µM
[8] = target: CDK14/Cyclin Y (Homo sapiens, UniProt O94921); assay: NanoBRET live-cell target engagement, CDK14-NanoLuc/Cyclin Y in HEK-293; format: binding; conditions: CDK14/Y, 10µM
[9] = target: CDK1/Cyclin E1 (Homo sapiens, UniProt P06493); assay: NanoBRET live-cell target engagement, CDK1-NanoLuc/Cyclin E1 in HEK-293; format: binding; conditions: CDK1/E1, 10µM
[10] = target: CDK17/Cyclin Y (Homo sapiens, UniProt Q00537); assay: NanoBRET live-cell target engagement, CDK17-NanoLuc/Cyclin Y in HEK-293; format: binding; conditions: CDK17/Y, 10µM
[11] = target: CDK6/Cyclin D1 (Homo sapiens, UniProt Q00534); assay: NanoBRET live-cell target engagement, NanoLuc-CDK6/Cyclin D1 in HEK-293; format: binding; conditions: CDK6/D1, 10µM
[12] = target: CDK18/Cyclin Y (Homo sapiens, UniProt Q07002); assay: NanoBRET live-cell target engagement, CDK18-NanoLuc/Cyclin Y in HEK-293; format: binding; conditions: CDK18/Y
[13] = target: CDK19/Cyclin C (Homo sapiens, UniProt Q9BWU1); assay: NanoBRET live-cell target engagement, NanoLuc-CDK19/Cyclin C in HEK-293
[14] = target: CDK8/Cyclin C (Homo sapiens, UniProt P49336); assay: NanoBRET live-cell target engagement, NanoLuc-CDK8/Cyclin C in HEK-293; format: binding; conditions: CDK8/C
[15] = target: CDK20/Cyclin H (Homo sapiens, UniProt Q8IZL9); assay: NanoBRET live-cell target engagement, NanoLuc-CDK20/Cyclin H in HEK-293; format: binding; conditions: CDK20/H, 10µM
[16] = target: CDK4/Cyclin D1 (Homo sapiens, UniProt P11802); assay: NanoBRET live-cell target engagement, NanoLuc-CDK4/Cyclin D1 in HEK-293; format: binding; conditions: CDK4/D1, 10µM
[17] = target: T1, CDK11A/Cyclin L2 (Homo sapiens, UniProt Q9UQ88); assay: NanoBRET live-cell target engagement, CDK11A-NanoLuc/Cyclin L2 in HEK-293; format: binding; conditions: CDK11a/L2, 10µM
T1 sequence (Q9UQ88 1-783): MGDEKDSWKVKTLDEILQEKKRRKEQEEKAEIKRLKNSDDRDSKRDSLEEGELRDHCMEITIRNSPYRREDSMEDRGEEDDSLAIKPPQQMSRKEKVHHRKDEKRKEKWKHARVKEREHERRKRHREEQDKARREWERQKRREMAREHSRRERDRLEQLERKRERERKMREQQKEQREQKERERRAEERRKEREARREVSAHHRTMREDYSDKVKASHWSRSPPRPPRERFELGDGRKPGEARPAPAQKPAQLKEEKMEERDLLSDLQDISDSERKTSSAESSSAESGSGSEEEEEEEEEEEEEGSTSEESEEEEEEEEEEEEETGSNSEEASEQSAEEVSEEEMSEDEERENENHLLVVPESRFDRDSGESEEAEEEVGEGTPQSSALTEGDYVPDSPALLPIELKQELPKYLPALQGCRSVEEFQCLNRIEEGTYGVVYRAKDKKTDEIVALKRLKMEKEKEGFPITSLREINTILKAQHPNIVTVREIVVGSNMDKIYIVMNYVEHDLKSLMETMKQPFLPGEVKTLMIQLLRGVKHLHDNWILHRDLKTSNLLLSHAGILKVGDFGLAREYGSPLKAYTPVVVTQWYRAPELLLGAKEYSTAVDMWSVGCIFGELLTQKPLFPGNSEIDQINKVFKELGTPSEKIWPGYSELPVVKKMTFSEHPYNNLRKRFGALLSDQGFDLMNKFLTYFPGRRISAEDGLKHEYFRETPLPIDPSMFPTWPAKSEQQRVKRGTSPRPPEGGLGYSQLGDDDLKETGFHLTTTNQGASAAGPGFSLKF

[18] = average of replicates, read-out: Inhibition at 10µM (%) Average
[19] = read-out: Inhibition at 10µM (%) Replicate 1
[20] = read-out: Inhibition at 10µM (%) Replicate 2
[21] = n=3 average ± SEM, n=2 average to 2 significant figures, read-out: IC50 (nM) Average*
[22] = read-out: IC50 (nM) Replicate 1
[23] = read-out: IC50 (nM) Replicate 2

Chain of CDK17/Cyclin Y (Q00537 whole entry): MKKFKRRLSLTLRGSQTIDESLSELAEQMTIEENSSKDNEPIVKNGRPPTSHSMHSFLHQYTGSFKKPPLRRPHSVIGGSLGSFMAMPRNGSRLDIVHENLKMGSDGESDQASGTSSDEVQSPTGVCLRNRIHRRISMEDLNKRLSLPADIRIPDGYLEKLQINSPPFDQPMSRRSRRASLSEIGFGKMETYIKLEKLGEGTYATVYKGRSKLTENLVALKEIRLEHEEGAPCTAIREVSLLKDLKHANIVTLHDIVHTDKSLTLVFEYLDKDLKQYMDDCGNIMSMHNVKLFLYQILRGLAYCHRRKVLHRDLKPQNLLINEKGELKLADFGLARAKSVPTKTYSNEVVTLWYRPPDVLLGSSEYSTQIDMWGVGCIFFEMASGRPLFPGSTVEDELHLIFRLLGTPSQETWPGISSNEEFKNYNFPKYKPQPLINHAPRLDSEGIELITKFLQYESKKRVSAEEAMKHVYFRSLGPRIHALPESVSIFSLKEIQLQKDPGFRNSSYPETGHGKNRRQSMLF
Chain of CDK17/Cyclin Y (Q8ND76 whole entry partner): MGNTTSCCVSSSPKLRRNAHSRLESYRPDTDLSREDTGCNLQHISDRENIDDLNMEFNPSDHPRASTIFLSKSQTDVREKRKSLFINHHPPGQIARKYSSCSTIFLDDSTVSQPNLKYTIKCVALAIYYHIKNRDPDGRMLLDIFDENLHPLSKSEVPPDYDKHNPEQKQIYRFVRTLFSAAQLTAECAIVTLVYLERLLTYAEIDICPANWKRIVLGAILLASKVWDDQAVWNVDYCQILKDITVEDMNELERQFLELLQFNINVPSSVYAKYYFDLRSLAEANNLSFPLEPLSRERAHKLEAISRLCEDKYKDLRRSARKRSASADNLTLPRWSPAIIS
Chain of CDK4/Cyclin D1 (P11802 whole entry): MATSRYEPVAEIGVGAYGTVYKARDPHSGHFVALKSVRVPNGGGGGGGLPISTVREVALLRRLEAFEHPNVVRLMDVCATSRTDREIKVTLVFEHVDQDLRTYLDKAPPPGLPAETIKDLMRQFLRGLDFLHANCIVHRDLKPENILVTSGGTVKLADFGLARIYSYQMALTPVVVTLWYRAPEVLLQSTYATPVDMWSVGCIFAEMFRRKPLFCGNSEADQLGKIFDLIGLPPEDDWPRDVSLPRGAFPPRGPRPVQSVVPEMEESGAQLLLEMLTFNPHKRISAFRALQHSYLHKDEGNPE
Chain of CDK4/Cyclin D1 (P24385 whole entry partner): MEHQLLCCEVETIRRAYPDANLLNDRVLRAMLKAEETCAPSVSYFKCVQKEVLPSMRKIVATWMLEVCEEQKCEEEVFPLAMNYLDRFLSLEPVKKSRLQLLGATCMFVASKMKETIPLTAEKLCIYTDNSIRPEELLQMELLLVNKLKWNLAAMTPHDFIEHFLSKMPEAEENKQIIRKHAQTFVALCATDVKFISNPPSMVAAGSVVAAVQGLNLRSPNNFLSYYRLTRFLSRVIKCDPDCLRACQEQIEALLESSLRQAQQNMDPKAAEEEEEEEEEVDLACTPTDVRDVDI
Chain of CDK10/Cyclin L2 (Q15131 whole entry): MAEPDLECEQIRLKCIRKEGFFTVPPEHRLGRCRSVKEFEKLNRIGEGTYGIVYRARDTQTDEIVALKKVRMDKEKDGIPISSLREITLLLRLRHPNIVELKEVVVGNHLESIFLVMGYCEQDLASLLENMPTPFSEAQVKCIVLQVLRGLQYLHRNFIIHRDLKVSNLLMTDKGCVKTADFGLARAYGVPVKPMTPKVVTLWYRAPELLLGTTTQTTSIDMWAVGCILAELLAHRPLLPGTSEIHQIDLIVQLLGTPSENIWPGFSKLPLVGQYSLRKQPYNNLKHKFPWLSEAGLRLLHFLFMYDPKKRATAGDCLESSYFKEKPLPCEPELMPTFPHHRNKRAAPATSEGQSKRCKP
Chain of CDK12/Cyclin K (Q9NYV4 1-1481 isoform Q9NYV4-2): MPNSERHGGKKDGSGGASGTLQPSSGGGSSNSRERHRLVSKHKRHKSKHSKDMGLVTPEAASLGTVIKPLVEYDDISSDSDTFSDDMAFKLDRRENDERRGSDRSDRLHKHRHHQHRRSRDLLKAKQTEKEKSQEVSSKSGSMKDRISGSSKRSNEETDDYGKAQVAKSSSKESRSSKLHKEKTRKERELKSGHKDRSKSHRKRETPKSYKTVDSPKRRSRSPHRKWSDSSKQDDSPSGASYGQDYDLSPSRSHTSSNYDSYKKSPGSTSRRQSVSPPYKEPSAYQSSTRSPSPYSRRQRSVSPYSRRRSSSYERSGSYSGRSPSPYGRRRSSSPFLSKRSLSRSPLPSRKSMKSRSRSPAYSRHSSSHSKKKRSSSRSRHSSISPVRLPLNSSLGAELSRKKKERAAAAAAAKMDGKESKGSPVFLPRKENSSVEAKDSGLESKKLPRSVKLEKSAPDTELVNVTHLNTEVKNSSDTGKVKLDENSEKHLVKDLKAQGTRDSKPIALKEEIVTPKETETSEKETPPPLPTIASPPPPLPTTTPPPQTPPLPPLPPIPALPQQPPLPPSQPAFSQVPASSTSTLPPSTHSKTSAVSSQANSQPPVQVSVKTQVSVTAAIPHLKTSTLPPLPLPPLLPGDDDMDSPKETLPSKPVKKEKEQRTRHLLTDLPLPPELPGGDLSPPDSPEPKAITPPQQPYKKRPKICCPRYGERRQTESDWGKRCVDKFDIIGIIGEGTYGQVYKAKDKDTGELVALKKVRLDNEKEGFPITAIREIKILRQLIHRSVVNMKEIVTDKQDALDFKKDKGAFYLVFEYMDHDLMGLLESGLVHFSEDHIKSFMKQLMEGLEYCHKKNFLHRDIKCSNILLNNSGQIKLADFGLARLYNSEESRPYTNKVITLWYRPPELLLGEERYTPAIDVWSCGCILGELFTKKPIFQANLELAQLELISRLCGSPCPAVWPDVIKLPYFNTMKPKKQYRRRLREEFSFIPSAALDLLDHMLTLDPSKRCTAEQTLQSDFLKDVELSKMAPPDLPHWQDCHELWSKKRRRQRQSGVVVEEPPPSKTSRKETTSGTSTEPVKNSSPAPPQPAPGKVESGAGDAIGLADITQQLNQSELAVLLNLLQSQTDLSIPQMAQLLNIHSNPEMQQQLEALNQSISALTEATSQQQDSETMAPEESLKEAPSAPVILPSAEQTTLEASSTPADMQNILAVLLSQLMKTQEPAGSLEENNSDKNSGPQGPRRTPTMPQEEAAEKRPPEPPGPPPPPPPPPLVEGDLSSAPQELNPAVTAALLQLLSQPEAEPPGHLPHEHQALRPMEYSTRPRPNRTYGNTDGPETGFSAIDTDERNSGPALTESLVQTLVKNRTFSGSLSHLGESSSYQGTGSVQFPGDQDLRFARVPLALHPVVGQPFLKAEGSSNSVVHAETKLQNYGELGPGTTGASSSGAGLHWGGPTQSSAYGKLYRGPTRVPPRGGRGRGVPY
Chain of CDK12/Cyclin K (O75909 whole entry partner): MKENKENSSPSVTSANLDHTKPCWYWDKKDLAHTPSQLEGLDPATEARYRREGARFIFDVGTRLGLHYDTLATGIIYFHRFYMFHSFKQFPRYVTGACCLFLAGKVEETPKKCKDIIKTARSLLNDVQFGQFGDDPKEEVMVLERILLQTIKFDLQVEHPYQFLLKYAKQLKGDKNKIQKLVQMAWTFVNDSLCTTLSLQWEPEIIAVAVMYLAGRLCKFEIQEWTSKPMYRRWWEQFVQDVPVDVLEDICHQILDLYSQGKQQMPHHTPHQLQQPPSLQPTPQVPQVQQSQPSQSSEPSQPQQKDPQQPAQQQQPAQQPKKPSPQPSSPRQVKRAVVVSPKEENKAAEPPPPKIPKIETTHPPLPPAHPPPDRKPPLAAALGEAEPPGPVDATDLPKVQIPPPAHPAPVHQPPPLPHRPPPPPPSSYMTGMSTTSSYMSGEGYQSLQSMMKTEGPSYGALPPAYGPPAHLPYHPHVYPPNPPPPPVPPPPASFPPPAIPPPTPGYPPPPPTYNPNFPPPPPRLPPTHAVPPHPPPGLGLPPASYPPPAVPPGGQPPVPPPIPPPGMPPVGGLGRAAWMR
Chain of CDK6/Cyclin D1 (Q00534 whole entry): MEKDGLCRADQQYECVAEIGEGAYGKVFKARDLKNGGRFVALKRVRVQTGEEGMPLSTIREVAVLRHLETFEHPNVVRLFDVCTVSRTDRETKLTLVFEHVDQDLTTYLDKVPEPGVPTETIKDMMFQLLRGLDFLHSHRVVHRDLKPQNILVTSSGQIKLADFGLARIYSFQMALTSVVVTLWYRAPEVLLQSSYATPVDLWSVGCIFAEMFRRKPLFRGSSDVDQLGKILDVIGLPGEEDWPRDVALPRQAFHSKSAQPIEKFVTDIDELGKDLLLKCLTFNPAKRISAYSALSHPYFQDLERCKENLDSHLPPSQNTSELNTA
Chain of CDK6/Cyclin D1 (P24385 whole entry partner): as the sequence (P24385 whole entry partner) above
Chain of CDK5/CDK5R1 (Q00535 whole entry): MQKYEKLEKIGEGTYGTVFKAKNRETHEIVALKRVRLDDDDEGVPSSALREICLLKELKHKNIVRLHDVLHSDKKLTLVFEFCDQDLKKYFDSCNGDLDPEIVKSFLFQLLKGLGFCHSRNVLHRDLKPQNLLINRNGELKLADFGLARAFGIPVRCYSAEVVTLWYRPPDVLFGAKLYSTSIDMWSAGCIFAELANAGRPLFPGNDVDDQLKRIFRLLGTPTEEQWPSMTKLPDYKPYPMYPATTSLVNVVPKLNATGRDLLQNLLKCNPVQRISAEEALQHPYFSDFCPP
Chain of CDK5/CDK5R1 (Q15078 whole entry partner): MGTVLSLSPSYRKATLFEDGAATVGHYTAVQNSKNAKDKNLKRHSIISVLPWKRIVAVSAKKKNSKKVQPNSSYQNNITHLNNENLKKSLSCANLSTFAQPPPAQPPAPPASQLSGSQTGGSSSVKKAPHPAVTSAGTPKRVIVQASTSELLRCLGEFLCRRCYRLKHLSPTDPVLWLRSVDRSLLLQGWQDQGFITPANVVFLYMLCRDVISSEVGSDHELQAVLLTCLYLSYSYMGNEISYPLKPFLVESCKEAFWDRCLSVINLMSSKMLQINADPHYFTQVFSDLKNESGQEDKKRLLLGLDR

Structure (SMILES): Cc1ncc(-c2ccnc(Nc3ccc(S(C)(=O)=O)cc3)n2)n1C(C)C [AZD5438]
- inhibition at 10 µM [1, 18]: 90.8%
- inhibition at 10 µM [1, 19]: 87.9%
- inhibition at 10 µM [1, 20]: 93.8%
- inhibition at 10 µM [2, 18]: 15.8%
- inhibition at 10 µM [2, 19]: 21.6%
- inhibition at 10 µM [2, 20]: 10.1%
- inhibition at 10 µM ([3]; read-out: Inhibition at 10µM (%) Average, CDK10/L2, average of replicates): 64.8%
- inhibition at 10 µM ([3]; read-out: Inhibition at 10µM (%) Replicate 1, CDK10/L2): 63.3%
- inhibition at 10 µM ([3]; read-out: Inhibition at 10µM (%) Replicate 2, CDK10/L2): 66.2%
- inhibition at 10 µM [4, 18]: 17.1%
- inhibition at 10 µM [4, 19]: 15.7%
- inhibition at 10 µM [4, 20]: 18.5%
- inhibition at 10 µM [5, 18]: 70.1%
- inhibition at 10 µM [5, 19]: 70.5%
- inhibition at 10 µM [5, 20]: 69.7%
- inhibition at 10 µM [6, 18]: 72.1%
- inhibition at 10 µM [6, 19]: 69.4%
- inhibition at 10 µM [6, 20]: 74.8%
- inhibition at 10 µM [7, 19]: 90%
- inhibition at 10 µM [7, 20]: 89.6%
- inhibition at 10 µM [8, 18]: 70.3%
- inhibition at 10 µM [8, 19]: 69.6%
- inhibition at 10 µM [8, 20]: 71%
- inhibition at 10 µM [9, 18]: 78.5%
- inhibition at 10 µM [9, 19]: 78.7%
- inhibition at 10 µM [9, 20]: 78.3%
- inhibition at 10 µM [10, 18]: 90.7%
- inhibition at 10 µM [10, 19]: 91.3%
- inhibition at 10 µM [10, 20]: 90.1%
- inhibition at 10 µM [11, 18]: 91.2%
- inhibition at 10 µM [11, 19]: 90.8%
- inhibition at 10 µM [11, 20]: 91.7%
- inhibition at 10 µM [12, 18]: 90%
- inhibition at 10 µM [12, 19]: 84.4%
- inhibition at 10 µM [12, 20]: 95.5%
- IC50 [12, 21]: 670 nM
- IC50 [12, 22]: 566 nM
- IC50 [12, 23]: 770 nM
- IC50 ([13]; IC50 (nM) Average*, CDK19/Y, n=3 average ± SEM, n=2 average to 2 significant figures): 300 nM
- IC50 ([13]; IC50 (nM) Replicate 1, CDK19/C): 470 nM
- IC50 ([13]; IC50 (nM) Replicate 2, CDK19/C): 140 nM
- inhibition at 10 µM ([13]; read-out: Inhibition at 10µM (%) Average, CDK19/C, average of replicates): 92.8%
- inhibition at 10 µM ([13]; read-out: Inhibition at 10µM (%) Replicate 1, CDK19/C): 90.6%
- inhibition at 10 µM ([13]; read-out: Inhibition at 10µM (%) Replicate 2, CDK19/C): 95.1%
- inhibition at 10 µM [14, 18]: 90.5%
- inhibition at 10 µM [14, 19]: 94.1%
- IC50 [14, 21]: 200 nM
- IC50 [14, 22]: 330 nM
- IC50 [14, 23]: 79 nM
- inhibition at 10 µM [15, 19]: 22.8%
- inhibition at 10 µM [15, 20]: 25.6%
- inhibition at 10 µM [16, 18]: 89.9%
- inhibition at 10 µM [16, 19]: 88.9%
- inhibition at 10 µM [16, 20]: 90.9%
- inhibition at 10 µM [17, 18]: 68.9%
- inhibition at 10 µM [17, 19]: 67.5%
- inhibition at 10 µM [17, 20]: 70.3%
